Laboratory results published in PubChem BioAssay AID2060510 (Molecular Pharmacology Branch, DTP, NCI, 2025).

System: 439559-082-T-J2-PDC spheroids viability
Test: Anticancer human tumor 439559-082-T-J2-PDC patient-derived colon adenocarcinoma cell line growth inhibition [GQUAD]
Conditions: for IC50: curve of first compound; for viability, T/C: stronger effect = lower value
From the text: DNA G-quadruplex Stabilizer Agents in Combinations in Complex Spheroids
A high-throughput screen of multi-cell type tumor spheroids was designed to identify active combinations of DNA G-quadruplex stabilizer agents and targeted small molecules. Complex spheroids include a stromal component modeled by human endothelial cells (HUVEC) and fibroblasts modeled by human mesenchymal stem cells (MSCs). The concentration ranges selected for each drug and investigational agent were based upon clinically achievable concentrations if the clinical Cmax of the agent was known.
Compounds. The drugs and investigational agents: pidnarulex (CX-5461; NSC782164), APTO-253 (NSC789042), BRACO-19 (NSC847499), peposertib (NSC802822), ceralasertib (NSC780249), elimusertib (NSC800525), camonsertib (NSC841442), AZD-1390 (NSC803789), olaparib (NSC753686), talazoparib (NSC767125), ART-558 (NSC835418), sotorasib (NSC818433), MRTX-1133 (NSC836407), SN-38 (NSC673596), topotecan (NSC609699), etoposide (NSC141540), doxorubicin (NSC123127), gemcitabine (NSC613327), 5-fluorouracil (NSC19893), paclitaxel (NSC125973), vemurafenib (NSC761431), panobinostat (NSC761190), R-306465 (JNJ-16241199; NSC773264), adavosertib (NSC754352), TP-3654 (NSC805149), carboplatin (NSC241240), KSQ-4279 (NSC840948), and staurosporine (NSC755774) were obtained from the National Cancer Institute (NCI) Developmental Therapeutics Program Chemical Repository (34). The FDA-approved anticancer drug set is available from the NCI Developmental Therapeutics Program. […] The stock solutions were prepared in dimethyl sulfoxide (DMSO, Sigma-Aldrich, St. Louis, MO, cat. D2650) at 800-fold the tested concentration and stored at -70 degrees C prior to their use. All drugs and investigational agents were tested over a range starting from a high concentration at or near the clinical Cmax and decreasing in half-log increments. If the clinical Cmax for an agent had not been determined, the highest concentration tested was 10 microM.
2.3 Cell Culture. All cells were maintained in an incubator at 37 degrees C and 5% CO2 with 95% humidity. The PDC lines were cultured according to standard operating procedures established by the NCI PDMR. All PDCs were thawed and cultured in Matrigel-coated flasks prepared with a working solution of 1X Ham's F-12 nutrient mix, without supplementation (Invitrogen, cat. 11765054), 100 U/mL penicillin-streptomycin (Invitrogen, cat. 15140122), and 2.5% Matrigel (Corning Inc., cat. 354248) for the first three passages. The 857933-349-R-J2-PDC line was cultured in 6C/Colon 1B media, which includes advanced DMEM/F-12 (Thermo Fisher Scientific, cat. 12634028), 10 mM HEPES (Thermo Fisher Scientific, cat. 15630080), 1X GlutaMAX supplement (Thermo Fisher Scientific, cat. 35050061), 0.1 mg/mL primocin (InvivoGen, cat. ant-pm-2), 10% defined fetal bovine serum, heat inactivated (HyClone Laboratories Inc., cat. SH30070.03HI), 50% L-WRN conditioned media (ATCC, cat. CRL-3276), 1.25 mM N-Acetyl-L-cysteine (Sigma-Aldrich, cat. A9165), 10 mM nicotinamide (Sigma-Aldrich, cat. N0636), 1X B-27 supplement (Thermo Fisher Scientific, cat. 17504044), 1X N-2 supplement (Thermo Fisher Scientific, cat. 17502048), 10 microM Y-27632 dihydrochloride (Tocris Bioscience, cat. 1254), and 50 ng/mL human EGF recombinant protein (Thermo Fisher Scientific, cat. PHG0311). The 485176-168-R4-J1-PDC line was cultured in Panc media, which includes all 6C/Colon 1B media components plus 100 ng/mL human FGF-10 (Thermo Fisher Scientific, cat. 100-26), 500 nM SB-431542 (Selleckchem, cat. S1067), and gastrin (Tocris, cat. 3006).
[…]

[1] = second compound 0.0316 µM, first compound 0.0316 µM
[2] = second compound 0.0316 µM, first compound 0.1 µM
[3] = second compound 0.0316 µM, first compound 0.316 µM
[4] = second compound 0.0316 µM, first compound 1 µM
[5] = second compound 0.0316 µM, first compound 3.16 µM
[6] = second compound 0.0316 µM, first compound 10 µM
[7] = second compound 0.1 µM, first compound 0.0316 µM
[8] = second compound 0.1 µM, first compound 0.1 µM
[9] = second compound 0.1 µM, first compound 0.316 µM
[10] = second compound 0.1 µM, first compound 1 µM
[11] = second compound 0.1 µM, first compound 3.16 µM
[12] = second compound 0.1 µM, first compound 10 µM
[13] = second compound 0.316 µM, first compound 0.0316 µM
[14] = second compound 0.316 µM, first compound 0.1 µM
[15] = second compound 0.316 µM, first compound 0.316 µM
[16] = second compound 0.316 µM, first compound 1 µM
[17] = second compound 0.316 µM, first compound 3.16 µM
[18] = second compound 0.316 µM, first compound 10 µM
[19] = second compound 1 µM, first compound 0.0316 µM
[20] = second compound 1 µM, first compound 0.1 µM
[21] = second compound 1 µM, first compound 0.316 µM
[22] = second compound 1 µM, first compound 1 µM
[23] = second compound 1 µM, first compound 3.16 µM
[24] = second compound 1 µM, first compound 10 µM
[25] = second compound 3.16 µM, first compound 0.0316 µM
[26] = second compound 3.16 µM, first compound 0.1 µM
[27] = second compound 3.16 µM, first compound 0.316 µM
[28] = second compound 3.16 µM, first compound 1 µM
[29] = second compound 3.16 µM, first compound 3.16 µM
[30] = second compound 3.16 µM, first compound 10 µM
[31] = second compound 10 µM, first compound 0.0316 µM
[32] = second compound 10 µM, first compound 0.1 µM
[33] = second compound 10 µM, first compound 0.316 µM
[34] = second compound 10 µM, first compound 1 µM
[35] = second compound 10 µM, first compound 3.16 µM
[36] = second compound 10 µM, first compound 10 µM
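Further: spheroids exposed to the agents for 7 days before readout.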
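Wherever viability, T/C is given: percent of luminescence signal in DMSO vehicle wells taken as 100% viability.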

C#Cc1c(F)ccc2cc(O)cc(-c3ncc4c(N5CC6CCC(C5)N6)nc(OCC56CCCN5CC(F)C6)nc4c3F)c12 (centres undefined) + Cc1cnc(CNC(=O)c2c(=O)c3ccc(N4CCCN(C)CC4)nc3n3c2sc2ccccc23)cn1
IC50 (second compound 0.0316 µM): 9.53 µM
IC50 (second compound 0.1 µM): > 10 µM
IC50 (second compound 0.316 µM): 6.48 µM
IC50 (second compound 1 µM): 3.09 µM
IC50 (second compound 3.16 µM): 1.91 µM
IC50 (second compound 10 µM): 0.665 µM
viability, T/C [1]: 92.5%
viability, T/C [2]: 81.9%
viability, T/C [3]: 76%
viability, T/C [4]: 62.7%
viability, T/C [5]: 62.6%
viability, T/C [6]: 47.5%
viability, T/C [7]: 92.6%
viability, T/C [8]: 80.1%
viability, T/C [9]: 60.1%
viability, T/C [10]: 61.2%
viability, T/C [11]: 57.2%
viability, T/C [12]: 53%
viability, T/C [13]: 81.2%
viability, T/C [14]: 68.8%
viability, T/C [15]: 68.9%
viability, T/C [16]: 57.9%
viability, T/C [17]: 58.6%
viability, T/C [18]: 45.2%
viability, T/C [19]: 86.2%
viability, T/C [20]: 66.9%
viability, T/C [21]: 65.3%
viability, T/C [22]: 56.1%
viability, T/C [23]: 49.5%
viability, T/C [24]: 45.8%
viability, T/C [25]: 71.3%
viability, T/C [26]: 73.1%
viability, T/C [27]: 56.7%
viability, T/C [28]: 55.8%
viability, T/C [29]: 47.8%
viability, T/C [30]: 36.8%
viability, T/C [31]: 59.1%
viability, T/C [32]: 55.9%
viability, T/C [33]: 49.4%
viability, T/C [34]: 51.3%
viability, T/C [35]: 42.1%
viability, T/C [36]: 33.7%

O=c1[nH]cc(F)c(=O)[nH]1 + Cc1cnc(CNC(=O)c2c(=O)c3ccc(N4CCCN(C)CC4)nc3n3c2sc2ccccc23)cn1
IC50 (second compound 0.0316 µM): > 10 µM
IC50 (second compound 0.1 µM): > 10 µM
IC50 (second compound 0.316 µM): > 10 µM
IC50 (second compound 1 µM): > 10 µM
IC50 (second compound 3.16 µM): > 10 µM
IC50 (second compound 10 µM): > 10 µM
viability, T/C [1]: 100%
viability, T/C [2]: 102%
viability, T/C [3]: 87.2%
viability, T/C [4]: 74.5%
viability, T/C [5]: 67%
viability, T/C [6]: 63.6%
viability, T/C [7]: 91.9%
viability, T/C [8]: 96.4%
viability, T/C [9]: 81.2%
viability, T/C [10]: 72.9%
viability, T/C [11]: 68.7%
viability, T/C [12]: 67.4%
viability, T/C [13]: 88.2%
viability, T/C [14]: 90%
viability, T/C [15]: 73.7%
viability, T/C [16]: 63.5%
viability, T/C [17]: 66.7%
viability, T/C [18]: 66%
viability, T/C [19]: 88.9%
viability, T/C [20]: 73.6%
viability, T/C [21]: 62.7%
viability, T/C [22]: 59.9%
viability, T/C [23]: 66.4%
viability, T/C [24]: 65.2%
viability, T/C [25]: 62.5%
viability, T/C [26]: 68.3%
viability, T/C [27]: 63%
viability, T/C [28]: 58.4%
viability, T/C [29]: 59.9%
viability, T/C [30]: 52.7%
viability, T/C [31]: 68.7%
viability, T/C [32]: 66.3%
viability, T/C [33]: 67.8%
viability, T/C [34]: 57.8%
viability, T/C [35]: 57.7%
viability, T/C [36]: 58.3%
